Experimental data from ChEMBL document CHEMBL5512655, “Discovery of indolylacryloyl-derived oxacins as novel potential broad-spectrum antibacterial candidates” (Eur J Med Chem, 2024).
Values after ≈ are worked out from the molar mass of the structure shown.

Assays:
Type in all cases: functional
Escherichia coli [1] = assay: Antibacterial activity against Escherichia coli assessed as inhibition of bacterial growth measured after 24 hrs incubation
Staphylococcus aureus [2] = assay: Antibacterial activity against Staphylococcus aureus ATCC 29213 assessed as inhibition of bacterial growth measured after 24 hrs incubation
Staphylococcus aureus [3] = assay: Antibacterial activity against methicillin-resistant Staphylococcus aureus N315 assessed as inhibition of bacterial growth measured after 24 hrs incubation
Pseudomonas aeruginosa [4] = assay: Antibacterial activity against Pseudomonas aeruginosa ATCC 27853 assessed as inhibition of bacterial growth measured after 24 hrs incubation
Pseudomonas aeruginosa [5] = assay: Antibacterial activity against Pseudomonas aeruginosa assessed as inhibition of bacterial growth measured after 24 hrs incubation
Acinetobacter baumannii = assay: Antibacterial activity against Acinetobacter baumannii assessed as inhibition of bacterial growth measured after 24 hrs incubation
Staphylococcus aureus [6] = assay: Antibacterial activity against Staphylococcus aureus assessed as inhibition of bacterial growth measured after 24 hrs incubation
Staphylococcus aureus [7] = assay: Antibacterial activity against Staphylococcus aureus ATCC 25923 assessed as inhibition of bacterial growth measured after 24 hrs incubation
Escherichia coli [8] = assay: Antibacterial activity against Escherichia coli ATCC 25922 assessed as inhibition of bacterial growth measured after 24 hrs incubation
Enterococcus faecalis = assay: Antibacterial activity against Enterococcus faecalis assessed as inhibition of bacterial growth measured after 24 hrs incubation
Klebsiella pneumoniae = assay: Antibacterial activity against Klebsiella pneumonia assessed as inhibition of bacterial growth measured after 24 hrs incubation

Row | SMILES | MIC (Escherichia coli [1]) [µg/mL] | MIC (Staphylococcus aureus [2]) [µg/mL] | MIC (Staphylococcus aureus [3]) [µg/mL] | MIC (Pseudomonas aeruginosa [4]) [µg/mL] | MIC (Pseudomonas aeruginosa [5]) [µg/mL] | MIC (Acinetobacter baumannii) [µg/mL] | MIC (Staphylococcus aureus [6]) [µg/mL] | MIC (Staphylococcus aureus [7]) [µg/mL] | MIC (Escherichia coli [8]) [µg/mL] | MIC (Enterococcus faecalis) [µg/mL] | MIC (Klebsiella pneumoniae) [µg/mL]
1 | C=CCn1cc(C(=O)O)c(=O)c2cc(F)c(N3CCN(C(=O)/C(C#N)=C/c4cn(CC(=O)OCC)c5ccccc45)CC3)cc21 | 1 (≈ 1.63 µM) | 16 (≈ 26.2 µM) | 128 (≈ 209 µM) | 4 (≈ 6.54 µM) | 256 (≈ 419 µM) | 8 (≈ 13.1 µM) | 16 (≈ 26.2 µM) | 64 (≈ 105 µM) | 32 (≈ 52.3 µM) | 0.25 (≈ 0.409 µM) | 1 (≈ 1.63 µM)
2 | CCn1cc(C(=O)O)c(=O)c2cc(F)c(N3CCN(C(=O)/C(C#N)=C/c4cn(CC5CCC5)c5ccccc45)CC3)cc21 | 0.5 (≈ 0.86 µM) | 0.25 (≈ 0.43 µM) | 0.25 (≈ 0.43 µM) | 4 (≈ 6.88 µM) | 0.25 (≈ 0.43 µM) | 0.25 (≈ 0.43 µM) | 0.25 (≈ 0.43 µM) | 0.25 (≈ 0.43 µM) | 0.5 (≈ 0.86 µM) | 0.5 (≈ 0.86 µM) | 0.25 (≈ 0.43 µM)
3 | CCn1cc(C(=O)O)c(=O)c2cc(F)c(N3CCN(C(=O)/C(C#N)=C/c4cn(Cc5ccc(Cl)cc5)c5ccccc45)CC3)cc21 | 1 (≈ 1.57 µM) | 16 (≈ 25.1 µM) | 32 (≈ 50.1 µM) | 1 (≈ 1.57 µM) | 0.5 (≈ 0.784 µM) | 0.5 (≈ 0.784 µM) | 64 (≈ 100 µM) | 16 (≈ 25.1 µM) | 4 (≈ 6.27 µM) | 32 (≈ 50.1 µM) | 0.5 (≈ 0.784 µM)
4 | CCn1cc(C(=O)O)c(=O)c2cc(F)c(N3CCN(C(=O)/C(C#N)=C/c4cn(CC5CCCCC5)c5ccccc45)CC3)cc21 | 1 (≈ 1.64 µM) | 1 (≈ 1.64 µM) | 16 (≈ 26.2 µM) | 1 (≈ 1.64 µM) | 2 (≈ 3.28 µM) | 1 (≈ 1.64 µM) | 32 (≈ 52.5 µM) | 16 (≈ 26.2 µM) | 4 (≈ 6.56 µM) | 32 (≈ 52.5 µM) | 1 (≈ 1.64 µM)
5 | C#CCn1cc(/C=C(\C#N)C(=O)N2CCN(c3cc4c(cc3F)c(=O)c(C(=O)O)cn4CC)CC2)c2ccccc21 | 1 (≈ 1.81 µM) | 0.5 (≈ 0.906 µM) | 0.25 (≈ 0.453 µM) | 4 (≈ 7.25 µM) | 0.5 (≈ 0.906 µM) | 0.25 (≈ 0.453 µM) | 0.25 (≈ 0.453 µM) | 0.25 (≈ 0.453 µM) | 0.5 (≈ 0.906 µM) | 0.5 (≈ 0.906 µM) | 0.25 (≈ 0.453 µM)
6 | CCn1cc(C(=O)O)c(=O)c2cc(F)c(N3CCN(C(=O)/C(C#N)=C/c4cn(CC5CC5)c5ccccc45)CC3)cc21 | 4 (≈ 7.05 µM) | 0.5 (≈ 0.881 µM) | 0.5 (≈ 0.881 µM) | 0.5 (≈ 0.881 µM) | 1 (≈ 1.76 µM) | 2 (≈ 3.52 µM) | 4 (≈ 7.05 µM) | 1 (≈ 1.76 µM) | 1 (≈ 1.76 µM) | 1 (≈ 1.76 µM) | 1 (≈ 1.76 µM)
7 | CCn1cc(C(=O)O)c(=O)c2cc(F)c(N3CCN(C(=O)/C(C#N)=C/c4cn(Cc5ccccc5Cl)c5ccccc45)CC3)cc21 | 1 (≈ 1.57 µM) | 64 (≈ 100 µM) | 32 (≈ 50.1 µM) | 1 (≈ 1.57 µM) | 16 (≈ 25.1 µM) | 8 (≈ 12.5 µM) | 256 (≈ 401 µM) | 32 (≈ 50.1 µM) | 0.25 (≈ 0.392 µM) | 16 (≈ 25.1 µM) | 32 (≈ 50.1 µM)
8 | CCn1cc(/C=C(\C#N)C(=O)N2CCN(c3cc4c(cc3F)c(=O)c(C(=O)O)cn4CC)CC2)c2ccccc21 | 64 (≈ 118 µM) | 0.25 (≈ 0.462 µM) | 0.25 (≈ 0.462 µM) | 1 (≈ 1.85 µM) | 4 (≈ 7.39 µM) | 1 (≈ 1.85 µM) | 0.25 (≈ 0.462 µM) | 0.25 (≈ 0.462 µM) | 2 (≈ 3.69 µM) | 0.5 (≈ 0.923 µM) | 0.25 (≈ 0.462 µM)
9 | CCn1cc(C(=O)O)c(=O)c2cc(F)c(N3CCN(C(=O)/C(C#N)=C/c4cn(Cc5ccc(Cl)c(Cl)c5)c5ccccc45)CC3)cc21 | 8 (≈ 11.9 µM) | 64 (≈ 95.2 µM) | 4 (≈ 5.95 µM) | 1 (≈ 1.49 µM) | 2 (≈ 2.97 µM) | 64 (≈ 95.2 µM) | 16 (≈ 23.8 µM) | 64 (≈ 95.2 µM) | 32 (≈ 47.6 µM) | 32 (≈ 47.6 µM) | 1 (≈ 1.49 µM)
10 | CCn1cc(C(=O)O)c(=O)c2cc(F)c(N3CCN(C(=O)/C(C#N)=C/c4cn(CC(=O)N5CCOCC5)c5ccccc45)CC3)cc21 | 0.5 (≈ 0.78 µM) | 4 (≈ 6.24 µM) | 2 (≈ 3.12 µM) | 0.25 (≈ 0.39 µM) | 1 (≈ 1.56 µM) | 0.5 (≈ 0.78 µM) | 8 (≈ 12.5 µM) | 2 (≈ 3.12 µM) | 0.5 (≈ 0.78 µM) | 1 (≈ 1.56 µM) | 1 (≈ 1.56 µM)
11 | CCn1cc(C(=O)O)c(=O)c2cc(F)c(N3CCN(C(=O)/C(C#N)=C/c4cn(Cc5ccc(C)cc5)c5ccccc45)CC3)cc21 | 16 (≈ 25.9 µM) | 4 (≈ 6.48 µM) | 1 (≈ 1.62 µM) | 0.25 (≈ 0.405 µM) | 32 (≈ 51.8 µM) | 8 (≈ 13 µM) | 32 (≈ 51.8 µM) | 2 (≈ 3.24 µM) | 8 (≈ 13 µM) | 8 (≈ 13 µM) | 0.5 (≈ 0.809 µM)
12 | CCn1cc(C(=O)O)c(=O)c2cc(F)c(N3CCN(C(=O)/C(C#N)=C/c4cn(CCN5CCOCC5)c5ccccc45)CC3)cc21 | 1 (≈ 1.6 µM) | 0.5 (≈ 0.798 µM) | 0.25 (≈ 0.399 µM) | 1 (≈ 1.6 µM) | 1 (≈ 1.6 µM) | 0.5 (≈ 0.798 µM) | 0.5 (≈ 0.798 µM) | 4 (≈ 6.38 µM) | 2 (≈ 3.19 µM) | 0.25 (≈ 0.399 µM) | 2 (≈ 3.19 µM)
